# Target: Mu-type opioid receptor (Cavia porcellus) (UniProt P97266)
# Experiment: Evaluated for analgesic activity as effective dose
# Assay type: functional
# Chain of Mu-type opioid receptor (Cavia porcellus) (P97266 whole entry): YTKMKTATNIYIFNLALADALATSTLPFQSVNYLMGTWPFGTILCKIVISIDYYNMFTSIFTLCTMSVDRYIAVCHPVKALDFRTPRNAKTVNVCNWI
row,SMILES,ED50 [mg/kg]
1,CCC(=O)C(c1ccccc1)(c1ccccc1)[C@@H](C)CN(C)C,49.8
2,CC[C@@H](O)C(C[C@@H](C)N(C)C)(c1ccccc1)c1ccccc1,24.7
3,CCC(=O)C(C[C@H](C)N(C)C)(c1ccccc1)c1ccccc1,25.7
4,CC[C@H](O)C(C[C@@H](C)N(C)C)(c1ccccc1)c1ccccc1,7.6
5,CCC(=O)C(CCN(C)C)(c1ccccc1)c1ccccc1,2.5
6,CC[C@@H](O)C(C[C@H](C)N(C)C)(c1ccccc1)c1ccccc1,63.7
7,CCC(=O)C(CC(C)N(C)C)(c1ccccc1)c1ccccc1 (stereo in doubt; threo),> 50
8,CC[C@H](O)C(c1ccccc1)(c1ccccc1)[C@@H](C)CN(C)C,60.7
9,CC[C@@H](O)C(c1ccccc1)(c1ccccc1)[C@@H](C)CN(C)C,58.7
10,CCC(O)C(C[C@@H](C)NC)(c1ccccc1)c1ccccc1 (some centres not stated),17.7
11,CC[C@H](O)C(C[C@H](C)N(C)C)(c1ccccc1)c1ccccc1,3.5
12,CCC(O)C(C[C@H](C)NC)(c1ccccc1)c1ccccc1 (some centres not stated),10.3
13,CC[C@@H](O)C(c1ccccc1)(c1ccccc1)[C@H](C)CN(C)C,91.7
14,CCC(=O)C(CC(C)N(C)C)(c1ccccc1)c1ccccc1 (stereo in doubt; erythro),0.4
15,CC[C@H](O)C(c1ccccc1)(c1ccccc1)[C@H](C)CN(C)C,6.2
16,CCC(=O)C(c1ccccc1)(c1ccccc1)[C@H](C)CN(C)C,1.2
17,CCC(=O)C(C[C@@H](C)N(C)C)(c1ccccc1)c1ccccc1,0.8

# Source: ChEMBL document CHEMBL1122146, “Conformation-activity study of methadone and related compounds” (J Med Chem, 1982)
